One data set has as its target T1, CYP1A2 (Homo sapiens, UniProt P05177).
T1 construct: human liver microsomes (BD Gentest) (0.5 mg/mL); tissue BD Gentest; host or cells: human liver microsomes
T1 sequence (P05177 1-516): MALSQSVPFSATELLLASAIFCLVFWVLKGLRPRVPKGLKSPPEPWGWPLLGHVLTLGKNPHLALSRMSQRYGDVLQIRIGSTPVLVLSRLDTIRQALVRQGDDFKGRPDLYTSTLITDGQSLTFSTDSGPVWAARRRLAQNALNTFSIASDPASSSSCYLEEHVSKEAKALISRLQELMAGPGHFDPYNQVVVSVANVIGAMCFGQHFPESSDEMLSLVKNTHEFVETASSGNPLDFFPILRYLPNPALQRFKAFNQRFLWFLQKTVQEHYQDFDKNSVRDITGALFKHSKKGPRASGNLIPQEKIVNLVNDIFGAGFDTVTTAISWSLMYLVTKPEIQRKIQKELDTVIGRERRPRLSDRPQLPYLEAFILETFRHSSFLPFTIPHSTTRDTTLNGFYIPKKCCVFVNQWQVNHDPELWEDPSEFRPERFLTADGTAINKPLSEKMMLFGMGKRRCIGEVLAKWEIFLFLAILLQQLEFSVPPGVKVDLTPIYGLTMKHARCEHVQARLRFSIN
As to the kind of experiment: P450 enzyme inhibition, CYP1A2. It is filed as in vitro ADME. As to conditions: human liver microsomes. The protocol: (§1) Eight cytochrome p450 enzyme inhibition reactions of human liver microsomes were performed using compound 77 of the present invention as a representative example.
(§2) The main reaction systems and processes: in 37° C. water bath, the test compounds (7 concentrations, 0, 0.25, 0.5, 5, 10, 25, and 50 uM; the final methanol concentration was 1% in the system), human liver microsomes (BD Gentest) (0.5 mg/mL) and reducing coenzyme II (Roche 10621706001) (1 mg/mL) and the corresponding cytochrome p450 enzyme probe substrate were co-incubated for 5 to 20 minutes. Among them, (1) the probe substrate for CYP1A2 was Phenacetin ([…]) (Sigma), and the selective inhibitor alpha-naphthoflavone (2 uM) (Sigma) was for parallel detection as positive control, and they were incubated for 20 minutes. (2) The probe substrate for CYP2b6 was Bupropion (40 uM) (Sigma) and the selective inhibitor Ticlopidine (10 uM) (Sigma) was for parallel detection as positive control, and they were incubated for 20 minutes. (3) The probe substrate of CYP2C8 was Amodiaquine (1 uM) (Sigma), and the selective inhibitor Montelukast (10 uM) (Sigma) was for parallel detection as positive control, and they were incubated for 20 minutes. (4) The probe substrate for CYP2C9 was Diclofenac (2.5 uM) (Sigma), and the selective inhibitor Sulphaphenazole (10 uM) (Sigma) was for parallel detection as positive control, and they were incubated for 20 minutes. (5) The probe substrate for CYP2C19 was Mephenytoin (40 uM) (Sigma), and the selective inhibitor Ticlopidine (10 uM) (Sigma) was for parallel detection as positive control, and they were incubated for 20 minutes. (6) The probe substrate for CYP2D6 was Dextromethorphan (5 uM) (Sigma), and the selective inhibitor Quinidine (10 uM) (Sigma) was for parallel detection as positive control, and they were incubated for 20 minutes. (7) The probe substrates for CYP3A4-T and CYP3A4-M were Testosterone (5 uM) (Sigma) and Midazolam (5 uM) (Sigma), respectively, and the selective inhibitor was Ketoconazole (1 uM) (Sigma), they were detected in parallel as positive control, and incubated for 5 minutes. The reaction system was quenched by adding methanol containing the corresponding internal standard. The internal standard compound was Tolbutamide (Sigma). The concentration of the corresponding metabolites was determined by LC/MS/MS. For the data analysis, the decrease in peak area of the metabolite of the sample after addition of compound 77 relative to the peak area of the metabolite of the solvent control sample was used to calculate the IC50 (concentration of the test substance at 50% inhibition). The percentages of peak areas of metabolites of CYP1A2, CYP2B6, CYP2C8, CYP2C9, 15CYP2C19, CYP2D6, CYP3A4-T, and CYP3A4-M probe substrates after addition of different concentrations of compound 77 and selective inhibitors relative to the solvent control peak areas were shown in the Table 7.
In general terms: Liver microsomes are vesicles of endoplasmic reticulum, rich in cytochrome P450 enzymes.

A further data set has as its target T2, CYP2C9 (Homo sapiens, UniProt P11712).
T2 construct: human liver microsomes (BD Gentest) (0.5 mg/mL); tissue BD Gentest; host or cells: human liver microsomes
As to the kind of experiment: P450 enzyme inhibition, CYP2C9. The format is in vitro ADME. As to conditions: human liver microsomes. The protocol:
as §1, §2

Data set [1] is described as follows: Long-term oral toxicity in mice, effect on blood cells. The format is in vivo, mouse. As to conditions: ICR mice; for mortality rate / weight reduced compared with the control group: oral once a day, to the 40th day. As for the experimental part: Study on the long-term oral toxicity in mice was performed with compound 77 of the present invention as a representative example.
Procedure: 6-week-old ICR mice purchased from Shanghai Sippr-BK Experimental Animal Co., Ltd. were selected with half males and half females, and the animals were randomly divided with 6 mice each group. The test and control groups were orally given once a day for 40 consecutive days, respectively. The body weight and physiological and pathological features of the mice were observed and recorded every day. The drug doses of the test group were 500 mg/kg, 350 mg/kg, and 250 mg/kg of the methanesulfonate of compound 77 in 20% HP-β-CD clear aqueous solution, respectively (the formulation method was the same as that of the test example 10), and the control group was the 20% HP-β-CD aqueous solution.

[2] abbreviates: oral once a day for 40 days, 250-500 mg/kg.

pIC50: −log10 of the molar value. Where a name gives a salt, the structure may show the parent alone. A value given as a limit tells only on which side of the number the result lay.

T2 sequence (P11712 whole entry): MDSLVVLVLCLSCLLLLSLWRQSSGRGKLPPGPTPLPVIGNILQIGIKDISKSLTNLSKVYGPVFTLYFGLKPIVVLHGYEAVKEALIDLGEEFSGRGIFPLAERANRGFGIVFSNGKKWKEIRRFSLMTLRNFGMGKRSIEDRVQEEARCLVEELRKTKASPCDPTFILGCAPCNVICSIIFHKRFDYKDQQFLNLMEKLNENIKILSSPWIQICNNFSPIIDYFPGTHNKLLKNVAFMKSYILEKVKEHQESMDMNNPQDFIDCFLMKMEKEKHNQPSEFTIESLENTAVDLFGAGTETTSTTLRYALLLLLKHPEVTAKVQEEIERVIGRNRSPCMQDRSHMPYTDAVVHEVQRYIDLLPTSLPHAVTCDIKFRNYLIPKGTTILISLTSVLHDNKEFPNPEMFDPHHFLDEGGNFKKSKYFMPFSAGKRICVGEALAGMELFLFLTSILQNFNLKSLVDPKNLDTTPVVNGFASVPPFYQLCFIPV

With `COCCOc1ccc2c(c1)ncn2-c1ccc(NC(=O)Nc2cc(C(C)(C)C)n[nH]2)cc1` [Compound 77, 1-(5-tert-butyl-2H-pyrazol-3-yl)-3-{4-[5-(2-methoxyl-ethoxyl)-benzimidazol-1-yl]-phenyl}-urea], the “CYP1A2 Remaining %” value at CYP1A2 (Concentration 0.25 uM) stood at 95.7%; at CYP1A2 (Concentration 0.5 uM), 99.8%; on CYP1A2 (Concentration 5 uM), 94.1%; at CYP1A2 (Concentration 10 uM), 92.1%; on CYP1A2 (Concentration 25 uM), 80.9%; on CYP1A2 (Concentration 50 uM), 63.4%. Further, the figures for the pIC50 at CYP1A2 (read-out: half-inhibitory concentration (IC50) of CYP1A2) and on CYP2C9 (read-out: half-inhibitory concentration (IC50) of CYP2C9) were less than 4.30 and 4.38, respectively. Further, the “CYP2C9 Remaining %” value on CYP2C9 (Concentration 0.25 uM) worked out at 99.6%; on CYP2C9 (Concentration 0.5 uM), 104.5%; on CYP2C9 (Concentration 5 uM), 99.0%; on CYP2C9 (Concentration 10 uM), 90.9%; at CYP2C9 (Concentration 25 uM) it was 72.5%; at CYP2C9 (Concentration 50 uM), 39.9%.
With `COCCOc1ccc2c(c1)ncn2-c1ccc(NC(=O)Nc2cc(C(C)(C)C)n[nH]2)cc1` [Compound 77 Mesylate, 1-(5-tert-butyl-2H-pyrazol-3-yl)-3-{4-[5-(2-methoxyl-ethoxyl)-benzimidazol-1-yl]-phenyl}-urea], in data set [1] (setting [2]), the “effect on the number of other blood cells” value is listed as “no significant effect”. The “reticulocytes decreased by” value in data set [1] (setting [2]) is listed as 10%-30%. Further, the mortality rate in data set [1] (250 mg/kg) is 0%; in data set [1] (350 mg/kg) it was 16.7%; in data set [1] (500 mg/kg), 66.7%. In addition, the “weight reduced compared with the control group” value in data set [1] (250 mg/kg) is reported as 8.2%; in data set [1] (350 mg/kg), 23.1%; in data set [1] (500 mg/kg) it was 34.7%.

Values taken from patent US10647680B2, “Urea compound, preparation method therefor and medical use thereof” (Ancureall Pharmaceutical (Shanghai) Co., Ltd., priority 2016, dated 2020).
